Measured values published in patent publication US20260000710A1, “Novel Treatments for Cardiovascular Related Disease” (priority 2022, published 2026).

System: AIM+ and AIM− CD4+ T cells from peptide-expanded PBMCs
Assay: TCRβ CDR3 sequencing (immunoSEQ) of sorted AIM+ and AIM− CD4+ T cells;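 also: genomic DNA from sorted cells as template, amplification bias-controlled two-step multiplex PCR, APOB6 pool at 10 µg/ml per peptide, CD40 blocking antibody added before restimulation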
Assay type: cell-based, human
Details: for Log10 Odds Ratio: AIM+ vs AIM−
[1] = Donor 6, PBMCs expanded 14 days and restimulated 24 h with APOB6
[2] = Donor 1, PBMCs expanded 14 days and restimulated 24 h with APOB6
[3] = Donor 2, PBMCs expanded 14 days and restimulated 24 h with APOB6
[4] = Donor 3, PBMCs expanded 14 days and restimulated 24 h with APOB6
[5] = Donor 5, PBMCs expanded 14 days and restimulated 24 h with APOB6
[6] = Donor 4, PBMCs expanded 14 days and restimulated 24 h with APOB6

Experimental: To examine the clonotypic identities of autoreactive CD4^+ T cells, the hypervariable TCRβ DR3 region was sequenced using a DNA-based sequencing technique^42 (Adaptive Biotechnologies), which have been used to profile clonal populations of other self-antigen specific T cells^43. PBMCs from six HLA-typed donors (demographics and HLA-II alleles in Tables 5, 6) were expanded (14-days) and restimulated (24 h) with the APOB6 pool. To isolate viable responder and non-responder CD4^+ T cells from the same pool of stimulated PBMCs (schematic in FIG. 15A, gating strategy in FIG. 151B), the inventors used the AIM assay protocol (FIGS. 2A to 2D).
As a second control, unexpanded PBMCs (day 0 samples), sorted into naïve, central memory (TCM) and effector memory (TEM) CD4^+ T cells, were used (gating strategy in FIG. 15C). This allowed tracing the APOB6-specific AIM^+ T cell clones in naïve and memory T cell lineages. Genomic DNA, isolated from sorted AIM^− and AIM^+ Day 14 samples and naïve, TCM and TEM Day 0 samples from six donors, was used as the starting material for TCRVβ sequencing (schematic in FIG. 15A) using an optimized two-step, amplification bias-controlled multiplex-PCR-based approach^42,44 (immunoSEQ Human TCRB Assay, Adaptive Biotechnologies).
For isolation of APOB epitope-specific CD4^+ T cells, PBMCs were expanded with the APOB6pool (10 μg/ml per peptide). On Day 14, cultured cells were washed and re-stimulated with APOB6 (10 μg/ml) for 24 h (AIM assay protocol). 1 μg/ml of CD40 blocking antibody was added 15 min before stimulation. At the end of the stimulation period, cells were washed with FACS buffer (PBS w/o Ca/Mg, 2% FCS). Day 14 (APOB6 expanded and restimulated) and Day 0 (ex vivo samples with no in vitro stimulation) PBMC samples from six donors were resuspended in a staining master mix containing anti-human Fc-Block (Biolegend), fixable viability dye and antibodies against T cell and non-T cell (Dump) surface markers, activation markers and memory markers (antibody details in Table 4). Viability dye was used at 1:1000 dilution, antibodies were used at a final dilution of 1:100 (activation markers) and 1:200 (other extracellular markers). […] Gates were set based on unstimulated and PHA-L stimulated negative and positive controls, respectively. Antigen-specific AIM^+ and non-specific control AIM^− CD4^+ T cells from Day 14 samples and naïve (CD45RA^+CCR7^+), central memory (CD45RA^−CCR7^+, TCM) and effector memory (CD45RA^−CCR7^−, TEM) CD4^+ T cells from Day 0 PBMCs were sorted into HEPES-containing buffer (PBS with 2% FBS and 0.025 M HEPES) using BD FACSAria flow cytometry sorters. Acquired data was analyzed with FlowJo software.
Genomic DNA was extracted from sorted cells using QIAamp DNA Micro Kit (QIAGEN) and sent to Adaptive Biotechnologies for survey-level TCRβ sequencing (depth ˜60,000 reads) using their established immunoSEQ platform^7. Briefly, highly variable CDR3 regions on somatically rearranged human TCRβ chains were amplified with a two-step multiplex PCR approach using optimized set of primers that target the VDJ region spanning each unique CDR3B. A synthetic repertoire containing all possible V/J templates is used as a built-in control to quantify and correct PCR amplification biases. Processing of raw Illumina sequence reads, filtering, demultiplexing, clustering and mapping of CDR3 sequences and annotation of VDJ genes using IMGT database sequences were performed at Adaptive Biotechnologies and made available for download and analysis.

“CASSIPQGSGSPLHF: TCRβ CDR3 clone, TCRBV05-06+TCRBJ01-06, Donor 6; top-ranked APOB6-specific rearrangement” was tested, and the “Log10 Odds Ratio” value (Donor 6) was 2.41, the “No. of clone-specific productive templates, AIM+ CD4+ T (Total 34927)” value [1] was 9283 and the “No. of clone-specific productive templates, AIM− CD4+ T (Total 45364)” value [1] was 63.

For “CASSIRPNDEQFF: TCRβ CDR3 clone, TCRBV09-01+TCRBJ02-01, Donor 1”, the “Log10 Odds Ratio” value (Donor 1) was 2.93, the “No. of clone-specific productive templates, AIM+ CD4+ T (Total 21697)” value [2] was 366 and the “No. of clone-specific productive templates, AIM− CD4+ T (Total 49956)” value [2] was 1.

For “CASSISLALIYEQYF: TCRβ CDR3 clone, TCRBV19-01+TCRBJ02-07, Donor 6”, the “Log10 Odds Ratio” value (Donor 6) was 2.09, the “No. of clone-specific productive templates, AIM+ CD4+ T (Total 34927)” value [1] was 371 and the “No. of clone-specific productive templates, AIM− CD4+ T (Total 45364)” value [1] was 4.

In the case of “CASSKVNEKLFF: TCRβ CDR3 clone, TCRBV03-01/03-02+TCRBJ01-04, Donor 2”, the “Log10 Odds Ratio” value (Donor 2) was 1.19, the “No. of clone-specific productive templates, AIM+ CD4+ T (Total 18591)” value [3] was 361 and the “No. of clone-specific productive templates, AIM− CD4+ T (Total 7206)” value [3] was 9.

“CASSLAGTGTNEQFF: TCRβ CDR3 clone, TCRBV05-01+TCRBJ02-01, Donor 1” was tested, and the “Log10 Odds Ratio” value (Donor 1) was 2.97, the “No. of clone-specific productive templates, AIM+ CD4+ T (Total 21697)” value [2] was 396 and the “No. of clone-specific productive templates, AIM− CD4+ T (Total 49956)” value [2] was 1.

With “CASSLALGTGDTEAFF: TCRβ CDR3 clone, TCRBV05-01+TCRBJ01-01, Donor 1” the “Log10 Odds Ratio” value (Donor 1) was 2.98, the “No. of clone-specific productive templates, AIM+ CD4+ T (Total 21697)” value [2] was 410 and the “No. of clone-specific productive templates, AIM− CD4+ T (Total 49956)” value [2] was 1.

In the case of “CASSLERGAYGYTF: TCRβ CDR3 clone, TCRBV07-02+TCRBJ01-02, Donor 6”, the “Log10 Odds Ratio” value (Donor 6) was 2.81, the “No. of clone-specific productive templates, AIM+ CD4+ T (Total 34927)” value [1] was 963 and the “No. of clone-specific productive templates, AIM− CD4+ T (Total 45364)” value [1] was 2.

For “CASSLPRDRDYGYTF: TCRβ CDR3 clone, TCRBV06-02+TCRBJ01-02, Donor 3”, the “Log10 Odds Ratio” value (Donor 3) was 2.55, the “No. of clone-specific productive templates, AIM+ CD4+ T (Total 16700)” value [4] was 269 and the “No. of clone-specific productive templates, AIM− CD4+ T (Total 21770)” value [4] was 1.

With “CASSLRTGIINEQFF: TCRβ CDR3 clone, TCRBV05-01+TCRBJ02-01, Donor 5” the “Log10 Odds Ratio” value (Donor 5) was 11.77, the “No. of clone-specific productive templates, AIM+ CD4+ T (Total 31354)” value [5] was 383 and the “No. of clone-specific productive templates, AIM− CD4+ T (Total 48987)” value [5] was 0.

“CASSLTRIPEQYF: TCRβ CDR3 clone, TCRBV28-01+TCRBJ02-07, Donor 1” was tested, and the “Log10 Odds Ratio” value (Donor 1) was 0.90, the “No. of clone-specific productive templates, AIM+ CD4+ T (Total 21697)” value [2] was 459 and the “No. of clone-specific productive templates, AIM− CD4+ T (Total 49956)” value [2] was 136.

For “CASSLYAGQNTEAFF: TCRβ CDR3 clone, TCRBV07-02+TCRBJ01-01, Donor 6”, the “Log10 Odds Ratio” value (Donor 6) was 2.35, the “No. of clone-specific productive templates, AIM+ CD4+ T (Total 34927)” value [1] was 344 and the “No. of clone-specific productive templates, AIM− CD4+ T (Total 45364)” value [1] was 2.

“CASSPADREETQYF: TCRβ CDR3 clone, TCRBV18-01+TCRBJ02-05, Donor 3” was tested, and the “Log10 Odds Ratio” value (Donor 3) was 0.99, the “No. of clone-specific productive templates, AIM+ CD4+ T (Total 16700)” value [4] was 410 and the “No. of clone-specific productive templates, AIM− CD4+ T (Total 21770)” value [4] was 56.

“CASSPDFSGANVLTF: TCRβ CDR3 clone, TCRBV05-06+TCRBJ02-06, Donor 6” was tested, and the “Log10 Odds Ratio” value (Donor 6) was 2.17, the “No. of clone-specific productive templates, AIM+ CD4+ T (Total 34927)” value [1] was 339 and the “No. of clone-specific productive templates, AIM− CD4+ T (Total 45364)” value [1] was 3.

In the case of “CASSPGREPGNTIYF: TCRβ CDR3 clone, TCRBV07-09+TCRBJ01-03, Donor 5”, the “Log10 Odds Ratio” value (Donor 5) was 0.57, the “No. of clone-specific productive templates, AIM+ CD4+ T (Total 31354)” value [5] was 422 and the “No. of clone-specific productive templates, AIM− CD4+ T (Total 48987)” value [5] was 179.

In the case of “CASSPLLYSGNTIYF: TCRβ CDR3 clone, TCRBV07-02+TCRBJ01-03, Donor 3”, the “Log10 Odds Ratio” value (Donor 3) was 12.09, the “No. of clone-specific productive templates, AIM+ CD4+ T (Total 16700)” value [4] was 347 and the “No. of clone-specific productive templates, AIM− CD4+ T (Total 21770)” value [4] was 0.

“CASSPQPSTDTQYF: TCRβ CDR3 clone, TCRBV07-08+TCRBJ02-03, Donor 4” was tested, and the “Log10 Odds Ratio” value (Donor 4) was 1.60, the “No. of clone-specific productive templates, AIM+ CD4+ T (Total 25796)” value [6] was 431 and the “No. of clone-specific productive templates, AIM− CD4+ T (Total 25928)” value [6] was 11.

In the case of “CASSPRAGGAVREQYF: TCRβ CDR3 clone, TCRBV05-08+TCRBJ02-07, Donor 2”, the “Log10 Odds Ratio” value (Donor 2) was 12.03, the “No. of clone-specific productive templates, AIM+ CD4+ T (Total 18591)” value [3] was 375 and the “No. of clone-specific productive templates, AIM− CD4+ T (Total 7206)” value [3] was 0.
